Results reported in patent EP0414533A1, “Use of iodopropargyl esters of alpha-amino acid derivatives as antimicrobial agents” (ROHM AND HAAS COMPANY, priority 1989, dated 1991).
≈ marks a conversion by molar mass, not a printed value. Where two headings read alike, the source gives them in different places.

Tests used:
[1] = test system: Piricularia oryzae (PIR); experiment: microbe, parasite or virus in culture; type: cell-based
[2] = test system: Fusarium roseum (FUS); experiment: In-vitro plant fungicide test; type: cell-based; conditions: Fusarium sambucinum
[3] = test system: ALT; experiment: In-vitro plant fungicide test; type: cell-based; conditions: Table IVb, read-out: % Control at (ppm) indicated ALT
[4] = test system: Pseudomonas aerugenosa (PSAE); experiment: Minimum inhibitory concentration (MIC), broth two-fold serial dilution test; conditions: Pseudomonas, IIIB, read-out: MIC (G-) PSAE, trypticase soy broth (complex media); Table IIIb
Description: (§1) When the test is ready to be done, each vessel in the dilution series, except the first vessel, contains an equal volume of compound free broth. The first vessel contains twice the volume of broth with the starting concentration of test compound. One half of the broth from the first vessel is transferred to the second vessel. After being mixed, one half the resulting volume is removed from the second vessel and transferred to the third vessel. The entire cycle is repeated sufficiently to give a series of concentrations amounting to 500, 250, 125, 63, 31, 16, 8, and 4 ppm (or 100, 50, 25, 12.5, 6.2, 3.1, 1.6, and 0.8), respectively.
(§2) Each vessel is then inoculated with a cell suspension of the appropriate test organism. Bacteria are grown in broth, fungi on agar slants for a time and at a temperature appropriate to the species being tested, and algae are a mixture of green algae and blue-green bacteria grown in a nutrient media. At the end of the growth period, in the case of bacteria, the broth is vortexed to disperse the cells.
(§3) The vessels are then incubated at the appropriate temperature. After the incubation, the vessels are examined for growth/no growth.

[5] = test system: Staphylococcus aureus (SAUR); experiment: as above; conditions: Staphylococcus aureus, IIIB, read-out: MIC (G+) SAUR, trypticase soy broth (complex media); Table IIIb
Description: as §1, §2, §3

[6] = test system: Phytophthora capsici (PHY); experiment: In-vitro plant fungicide test; type: cell-based; conditions: Phytophthora capsici
[7] = test system: Septoria nodorum (SEP); experiment: In-vitro plant fungicide test; type: cell-based; conditions: Parastagonospora nodorum
[8] = test system: Aspergillus niger (ANIG); experiment: Minimum inhibitory concentration (MIC), broth two-fold serial dilution test; type: cell-based; conditions: Aspergillus niger, IIIB, trypticase soy broth (complex media); Table IIIb; read-out: MIC (F) ANIG
[9] = test system: Xanthomonas campestris (XAN); experiment: In-vitro plant fungicide test; type: cell-based; conditions: Xanthomonas campestris; 25 ppm; Table IVa; read-out: % Control at 25 ppm XAN
[10] = test system: PSH; experiment: In-vitro plant fungicide test; type: cell-based; conditions: Table IVb, read-out: % Control at (ppm) indicated PSH
[11] = test system: Rhizoctonia solani (RHI); experiment: In-vitro plant fungicide test; type: cell-based; conditions: Rhizoctonia solani
[12] = test system: MIXED COOLING TOWER ALGAE; experiment: MIC test against mixed cooling tower algae; type: cell-based, green algae and blue-green bacteria; conditions: Table VIII
Description: The algae culture contains green algae and blue-green bacteria, and is obtained from a cooling tower in Spring House, Pennsylvania. The algae culture is grown in Allen's medium on a rotary shaker under flourescent room lighting. This culture is further diluted with Allen's medium and then added to the test vessel.

[13] = test system: THREE FUNGI; experiment: MIC test against three fungi in Mycophile Broth, pH 5.0, read after 8 days (Table VII); type: cell-based; conditions: 192 h, serial dilutions from 50 ppm, read after 8 days of incubation
[14] = test system: 8 FUNGI; experiment: Microbicides secondary test against 8 fungi on Mycophile Agar at pH 5.0 (Table VI); type: cell-based; set-up: key: 1= no growth; 0= growth of the indicated fungi at dose indicated in ppm; conditions: for ANIG growth: Aspergillus niger; for APUL growth: Aureobasidium pullulans; for CGLO growth: Chaetomium globosum; for CRES growth: Cladosporium resinae; for GTRA growth: Gloeophyllum trabeum; for PFUN growth: Penicillium funiculosum; for RRUB growth: Rhodotorula rubra; for SSER growth: Sacharomyces cerevisiae
Text: The results of the minimum inhibitory concentration (MIC) tests of compounds of this invention are shown in Tables IIIa IIIb, IIIc, V, VI, VII, and VIII against the microorganisms shown in Table IX.

[15] = test system: UST; experiment: In-vitro plant fungicide test; type: cell-based; conditions: Table IVb, read-out: % Control at (ppm) indicated UST

Compound: O=C(CN1C(=O)c2ccccc2C1=O)OCC#CI [Compound 30, N-phthaloylglycine iodopropargyl ester]
- inhibition of growth at 1.5 ppm ([1]; 1.5 ppm, read-out: % Control at (ppm) indicated PIR): 100%
- inhibition of growth at 6 ppm ([1]; 6 ppm, read-out: % Control at (ppm) indicated PIR): 100%
- inhibition of growth at 25 ppm ([1]; 25 ppm, read-out: % Control at (ppm) indicated PIR): 100%
- inhibition of growth at 0.2 ppm ([1]; .2 ppm, read-out: % Control at (ppm) indicated PIR): 0%
- inhibition of growth at 0.4 ppm ([1]; .4 ppm, read-out: % Control at (ppm) indicated PIR): 0%
- inhibition of growth at 0.8 ppm ([1]; .8 ppm, read-out: % Control at (ppm) indicated PIR): 100%
- inhibition of growth at 25 ppm ([1]; read-out: % Control at 25 ppm PIR): 100%
- inhibition of growth at 25 ppm ([2]; read-out: % Control at 25 ppm FUS, 25 ppm, Table IVa, *=Phytotoxic): 100%
- inhibition of growth at 1.5 ppm ([2]; read-out: % Control at (ppm) indicated FUS, 1.5 ppm, Table IVb): 0%
- inhibition of growth at 3 ppm ([2]; read-out: % Control at (ppm) indicated FUS, 3 ppm, Table IVb): 100%
- inhibition of growth at 6 ppm ([2]; read-out: % Control at (ppm) indicated FUS, 6 ppm, Table IVb): 100%
- inhibition of growth at 12 ppm ([2]; read-out: % Control at (ppm) indicated FUS, 12 ppm, Table IVb): 100%
- inhibition of growth at 25 ppm ([2]; read-out: % Control at (ppm) indicated FUS, 25 ppm, Table IVb): 100%
- inhibition of growth at 0.2 ppm ([2]; read-out: % Control at (ppm) indicated FUS, .2 ppm, Table IVb): 0%
- inhibition of growth at 0.4 ppm ([2]; read-out: % Control at (ppm) indicated FUS, .4 ppm, Table IVb): 0%
- inhibition of growth at 0.8 ppm ([2]; read-out: % Control at (ppm) indicated FUS, .8 ppm, Table IVb): 0%
- inhibition of growth at 1.5 ppm ([3]; 1.5 ppm): 0%
- inhibition of growth at 3 ppm ([3]; 3 ppm): 50%
- inhibition of growth at 6 ppm ([3]; 6 ppm): 90%
- inhibition of growth at 12 ppm ([3]; 12 ppm): 100%
- inhibition of growth at 25 ppm ([3]; 25 ppm): 100%
- inhibition of growth at 0.2 ppm ([3]; .2 ppm): 0%
- inhibition of growth at 0.4 ppm ([3]; .4 ppm): 0%
- inhibition of growth at 0.8 ppm ([3]; .8 ppm): 0%
- MIC [4]: > 250 µg/mL
- MIC [5]: > 250 µg/mL
- inhibition of growth at 1.5 ppm ([6]; 1.5 ppm, Table IVb, read-out: % Control at (ppm) indicated PHY): 100%
- inhibition of growth at 6 ppm ([6]; 6 ppm, Table IVb, read-out: % Control at (ppm) indicated PHY): 100%
- inhibition of growth at 25 ppm ([6]; Table IVa, read-out: % Control at 25 ppm PHY): 100%
- inhibition of growth at 25 ppm ([6]; Table IVb, read-out: % Control at (ppm) indicated PHY): 100%
- inhibition of growth at 0.2 ppm ([6]; .2 ppm, Table IVb, read-out: % Control at (ppm) indicated PHY): 0%
- inhibition of growth at 0.4 ppm ([6]; .4 ppm, Table IVb, read-out: % Control at (ppm) indicated PHY): 0%
- inhibition of growth at 0.8 ppm ([6]; .8 ppm, Table IVb, read-out: % Control at (ppm) indicated PHY): 0%
- inhibition of growth at 1.5 ppm ([7]; 1.5 ppm, Table IVb, read-out: % Control at (ppm) indicated SEP): 100%
- inhibition of growth at 6 ppm ([7]; 6 ppm, Table IVb, read-out: % Control at (ppm) indicated SEP): 100%
- inhibition of growth at 25 ppm ([7]; Table IVa, read-out: % Control at 25 ppm SEP): 75%
- inhibition of growth at 25 ppm ([7]; Table IVb, read-out: % Control at (ppm) indicated SEP): 100%
- inhibition of growth at 0.2 ppm ([7]; .2 ppm, Table IVb, read-out: % Control at (ppm) indicated SEP): 0%
- inhibition of growth at 0.4 ppm ([7]; .4 ppm, Table IVb, read-out: % Control at (ppm) indicated SEP): 0%
- inhibition of growth at 0.8 ppm ([7]; .8 ppm, Table IVb, read-out: % Control at (ppm) indicated SEP): 100%
- MIC [8]: 0.12 µg/mL (≈ 0.325 µM)
- inhibition of growth at 25 ppm [9]: 0%
- inhibition of growth at 1.5 ppm ([10]; 1.5 ppm): 100%
- inhibition of growth at 6 ppm ([10]; 6 ppm): 100%
- inhibition of growth at 25 ppm ([10]; 25 ppm): 100%
- inhibition of growth at 0.2 ppm ([10]; .2 ppm): 0%
- inhibition of growth at 0.4 ppm ([10]; .4 ppm): 100%
- inhibition of growth at 0.8 ppm ([10]; .8 ppm): 100%
- inhibition of growth at 1.5 ppm ([11]; 1.5 ppm, Table IVb, read-out: % Control at (ppm) indicated RHI): 0%
- inhibition of growth at 6 ppm ([11]; 6 ppm, Table IVb, read-out: % Control at (ppm) indicated RHI): 100%
- inhibition of growth at 25 ppm ([11]; Table IVa, read-out: % Control at 25 ppm RHI): 90%
- inhibition of growth at 25 ppm ([11]; Table IVb, read-out: % Control at (ppm) indicated RHI): 100%
- inhibition of growth at 0.2 ppm ([11]; .2 ppm, Table IVb, read-out: % Control at (ppm) indicated RHI): 0%
- inhibition of growth at 0.4 ppm ([11]; .4 ppm, Table IVb, read-out: % Control at (ppm) indicated RHI): 0%
- inhibition of growth at 0.8 ppm ([11]; .8 ppm, Table IVb, read-out: % Control at (ppm) indicated RHI): 0%
- MIC [12]: 6.2 µg/mL (≈ 16.8 µM)
- MIC ([13]; Aspergillus niger, read-out: MIC ANIG): 12.5 µg/mL (≈ 33.9 µM)
- MIC ([13]; Aureobasidium pullulans, read-out: MIC APUL): 50 µg/mL (≈ 135 µM)
- MIC ([13]; Gloeophyllum trabeum, read-out: MIC GTRA): 6.2 µg/mL (≈ 16.8 µM)
- ANIG growth ([14]; 0.2 PPM): 0
- ANIG growth ([14]; 1.0 PPM): 0
- ANIG growth ([14]; 2.5 PPM): 0
- ANIG growth ([14]; 25 PPM): 1
- APUL growth ([14]; 0.2 PPM): 0
- APUL growth ([14]; 1.0 PPM): 0
- APUL growth ([14]; 2.5 PPM): 0
- APUL growth ([14]; 25 PPM): 1
- CGLO growth ([14]; 0.2 PPM): 0
- CGLO growth ([14]; 1.0 PPM): 0
- CGLO growth ([14]; 2.5 PPM): 1
- CGLO growth ([14]; 25 PPM): 1
- CRES growth ([14]; 0.2 PPM): 0
- CRES growth ([14]; 1.0 PPM): 0
- CRES growth ([14]; 2.5 PPM): 0
- CRES growth ([14]; 25 PPM): 1
- GTRA growth ([14]; 0.2 PPM): 0
- GTRA growth ([14]; 1.0 PPM): 0
- GTRA growth ([14]; 2.5 PPM): 1
- GTRA growth ([14]; 25 PPM): 1
- PFUN growth ([14]; 0.2 PPM): 0
- PFUN growth ([14]; 1.0 PPM): 0
- PFUN growth ([14]; 2.5 PPM): 0
- PFUN growth ([14]; 25 PPM): 1
- RRUB growth ([14]; 0.2 PPM): 0
- RRUB growth ([14]; 1.0 PPM): 0
- RRUB growth ([14]; 2.5 PPM): 0
- RRUB growth ([14]; 25 PPM): 1
- SSER growth ([14]; 0.2 PPM): 0
- SSER growth ([14]; 1.0 PPM): 0
- SSER growth ([14]; 2.5 PPM): 1
- SSER growth ([14]; 25 PPM): 1
- inhibition of growth at 1.5 ppm ([15]; 1.5 ppm): 0%
- inhibition of growth at 3 ppm ([15]; 3 ppm): 0%
- inhibition of growth at 6 ppm ([15]; 6 ppm): 0%
- inhibition of growth at 12 ppm ([15]; 12 ppm): 0%
- inhibition of growth at 25 ppm ([15]; 25 ppm): 0%
- inhibition of growth at 0.2 ppm ([15]; .2 ppm): 0%
- inhibition of growth at 0.4 ppm ([15]; .4 ppm): 0%
- inhibition of growth at 0.8 ppm ([15]; .8 ppm): 0%
